Laboratory results reported in patent US10450288B2, “Hydroxy formamide derivatives and their use” (GLAXOSMITHKLINE INTELLECTUAL PROPERTY (NO.2) LIMITED, priority 2014, dated 2019).

Experiments:
[1] = tested on: human cardiac fibroblasts; test: Cell-based inhibition assay of generation of procollagen I C-terminal propeptide (PICP), PICP ELISA; conditions: Cardiac fibroblast, read-out: pIC50, PICP cellular inhibition assay (converted)
Procedure, shortened: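 Cardiac fibroblasts (passage ≤6) treated 24–48 h at 37 °C with compounds in ficoll crowding medium containing 100 μM ascorbic acid, DMSO <0.3%. PICP secreted into the medium was quantified by ELISA, normalised to untreated controls and fitted to log(inhibitor)–response to give pIC50.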

[2] = tested on: human cardiac fibroblasts; test: Cell-based inhibition assay of mature collagen deposition (immunostaining); conditions: Cardiac fibroblast; human cardiac fibroblasts, crowding media, 24 to 48 hr, collagen I immunostaining normalized to nuclei; read-out: pIC50, mature collagen cellular inhibition assay (converted)
Experimental: Cell-Based Inhibition Assay of Generation of Procollagen I C-Terminal Propeptide (PICP) and Mature Collagen:
An adaptation of the collagen deposition assay described by Chen, C. Z. C., et al., British Journal of Pharmacology, 2009, 158, 1196-1209 was used to examine effect of compounds on procollagen I processing and collagen deposition. In the adapted assay, human cardiac fibroblasts were utilized. Processing of procollagen I was determined by a PICP ELISA assay and deposition of mature collagen was determined by immunostaining.
Human cardiac fibroblasts were cultured and maintained until passage 6 in FGM-3 media (Lonza, #CC-3132) in a 37° C. humidified incubator with 5% CO2. They were then seeded in 96-well black wall, clear bottom plates at 10,000 to 15,000 cells per well in eagle's minimum essential media (EMEM, ATCC #30-2003) containing 10% fetal bovine serum (FBS, Life Technologies #10082147), 1% Glutamax (Life Technologies #35050061) and 1% Penicillin and Streptomycin (Life Technologies #15070063). These cultures were placed in 37° C. incubator. The next day, media were removed by aspiration and cells were rinsed with phosphate buffered saline. Crowding media (also called ficoll media) was prepared by adding 112.5 mg/ml of ficoll70 and 75 mg/ml ficoll400 (GE healthcare #17-0310-10 and 17-0300-10, respectively), 100 μM ascorbic acid, 1% Glutamax and 1% Penicillin and Streptomycin to EMEM media. Test compounds (dissolved in DMSO) were diluted into crowding media and then added to the cells. Final concentration of DMSO in crowding media was less than 0.3%. Cells were treated for 24 to 48 hr in a 37° C. incubator. At the end of the treatment period, cell media were collected. The level of PICP in the media were determined by a PICP ELISA assay (Quidel #8003) following the manufacturer's protocol. Potencies of test compounds were calculated by fitting PICP levels, relative to untreated controls, to log (inhibitor) vs. response equation using Graphpad Prism software 5.0 and expressed as pIC50.
For some compounds, deposition of mature collagen was measured by immunostaining in addition to PICP levels. At the end of the treatment period, cells on culture plate were fixed with 100% methanol (prechilled to −20° C.) for 10 min. Then the cells were immunostained with mouse anti-mature collagen I antibody (1:500 dilution, Sigma#C2456), anti-mouse secondary antibody Alexa647 (1:500 dilution, Invitrogen#A21236) and Hoechst (for nuclei, 2 μg/ml, Invitrogen#H3596). Fluorescent image acquisition was done using the Operetta High Content Imaging system (Perkin Elmer). For each image field, the intensity of mature collagen staining was normalized with the number of nuclei. Normalized collagen levels were used to calculate the potency of test compounds with Graphpad Prism software, as described above.

[3] = human cardiac fibroblasts, crowding media, 24 to 48 hr, PICP ELISA of media

In the case of `CCOc1cc(-c2ccc(C(=O)NCNC(=O)[C@H](CCc3ccc(F)cc3F)[C@@H](CC)N(O)C=O)o2)ccc1C(=O)N[C@@H](CC(=O)O)C(=O)O` [Example 123, (S)-2-(4-(5-((((2R,3R)-2-(2,4-difluorophenethyl)-3-(N-hydroxyformamido)pentanamido)methyl)carbamoyl)furan-2-yl)-2-ethoxybenzamido) succinic acid], the IC50 [1, 3] is reported as < 3.98 µM and the IC50 [2] is reported as < 1 µM.
For `CCCCC[C@@H](C(=O)NCNC(=O)c1ccc(-c2ccc(C(=O)NCP(=O)(O)O)c(OCC)c2)o1)[C@@H](CC)N(O)C=O` [Example 139, ((2-ethoxy-4-(5-((((R)-2-((R)-1-(N-hydroxyformamido)propyl)heptanamido)methyl)carbamoyl)furan-2-yl)benzamido)methyl)phosphonic acid], the IC50 [1, 3] was < 3.98 µM and the IC50 [2] was < 1 µM.
In the case of `CCCCC[C@@H](C(=O)NCNC(=O)c1ccc(-c2cccc(C3(C(=O)O)CC3)c2)o1)[C@@H](CC)N(O)C=O` [Example 80, 1-(3-(5-((((R)-2-((R)-1-(N-hydroxyformamido)propyl)heptanamido)methyl)carbamoyl)furan-2-yl)phenyl) cyclopropanecarboxylic acid], the IC50 [1, 3] is reported as < 3.98 µM and the IC50 [2] is reported as < 1 µM.
With `CCCCC[C@@H](C(=O)NCNC(=O)c1ccc(-c2cc(OCC)cc(P(=O)(O)O)c2)o1)[C@@H](CC)N(O)C=O` [Example 96, (3-ethoxy-5-(5-((((R)-2-((R)-1-(N-hydroxyformamido)propyl)heptanamido)methyl)carbamoyl)furan-2-yl)phenyl)phosphonic acid] the IC50 [1, 3] was < 3.98 µM and the IC50 [2] was < 1 µM.
`CCCCC[C@@H](C(=O)NCNC(=O)c1ccc(-c2ccc(CC(=O)N[C@@H](CC(=O)O)C(=O)O)c(OCC)c2)o1)[C@@H](CC)N(O)C=O` [Example 75, (S)-2-(2-(2-ethoxy-4-(5-((((R)-2-((R)-1-(N-hydroxyformamido)propyl)heptanamido)methyl)carbamoyl)furan-2-yl)phenyl)acetamido) succinic acid] was tested, and the IC50 [1, 3] was < 3.98 µM and the IC50 [2] was < 1 µM.
With `CCCCC[C@@H](C(=O)NCNC(=O)c1ccc(-c2ccc(P(=O)(O)O)c(OCC)c2)o1)[C@@H](CC)N(O)C=O` [Example 98, (2-ethoxy-4-(5-((((R)-2-((R)-1-(N-hydroxyformamido)propyl)heptanamido)methyl)carbamoyl)furan-2-yl)phenyl)phosphonic acid] the IC50 [1, 3] was < 3.98 µM and the IC50 [2] was < 1 µM.
`CCCCC[C@@H](C(=O)NCNC(=O)c1ccc(-c2cc(OCC)cc(C(=O)O)c2)o1)[C@@H](CC)N(O)C=O` [Example 39, 3-ethoxy-5-(5-((((R)-2-((R)-1-(N-hydroxyformamido)propyl)heptanamido)methyl)carbamoyl)furan-2-yl)benzoic acid] was tested, and the IC50 [1, 3] was < 3.98 µM and the IC50 [2] was < 1 µM.
`CCCCC[C@@H](C(=O)NCNC(=O)c1ccc(-c2cc(OCC)cc(C(=O)N[C@@H](CCC(=O)O)C(=O)O)c2)o1)[C@@H](CC)N(O)C=O` [Example 93, (S)-2-(3-ethoxy-5-(5-((((R)-2-((R)-1-(N-hydroxy-formamido)propyl)heptanamido)methyl)carbamoyl)furan-2-yl)benzamido) pentanedioic acid] was tested, and the IC50 [1, 3] was < 3.98 µM and the IC50 [2] was < 1 µM.
`CCCCC[C@@H](C(=O)NCNC(=O)c1ccc(-c2ccc(C(=O)N[C@@H](CC(=O)O)C(=O)O)c(OCC)c2)o1)[C@@H](CC)N(O)C=O` [Example 74, (S)-2-(2-ethoxy-4-(5-((((R)-2-((R)-1-(N-hydroxyformamido)propyl)heptanamido)methyl)carbamoyl)furan-2-yl)benzamido)succinic acid] was tested, and the IC50 [1, 3] was < 3.98 µM and the IC50 [2] was < 1 µM.
For `CCCCC[C@H](CN(O)C=O)C(=O)NCNC(=O)c1ccc(-c2cccc(OCC(F)(F)F)c2)o1` [Example 23, (R)-N-((2-((N-hydroxyformamido)methyl)heptanamido)methyl)-5-(3-(2,2,2-trifluoroethoxy)phenyl) furan-2-carboxamide], the IC50 [1, 3] was < 3.98 µM.
With `CCCCC[C@@H](C(=O)NCNC(=O)c1ccc(-c2cc(OCC)cc(C(=O)N(CC(=O)O)CC(=O)O)c2)o1)[C@@H](CC)N(O)C=O` [Example 87, 2,2′-((3-ethoxy-5-(5-((((R)-2-((R)-1-(N-hydroxy-formamido)propyl)heptanamido)methyl)carbamoyl)furan-2-yl)benzoyl)azanediyl) diacetic acid] the IC50 [1, 3] was < 3.98 µM.
With `CCCCC[C@H](CN(O)C=O)C(=O)NCNC(=O)c1ccc(-c2cccc(S(=O)(=O)NC(=O)CC)c2)o1` [Example 28, (R)-N-((2-((N-hydroxyformamido)methyl)heptanamido)methyl)-5-(3-(N-propionylsulfamoyl)phenyl)furan-2-carboxamide] the IC50 [1, 3] was < 3.98 µM.
`CCCCC[C@H](CN(O)C=O)C(=O)NCNC(=O)c1ccc(-c2cccc(OC(F)(F)F)c2)o1` [Example 13, (R)-N-((2-((N-hydroxyformamido)methyl)heptanamido)methyl)-5-(3-(trifluoromethoxy)phenyl) furan-2-carboxamide carboxamide] was tested, and the IC50 [1, 3] was < 3.98 µM.
In the case of `CCCCC[C@H](CN(O)C=O)C(=O)NCNC(=O)c1ccc(-c2cc(OC)cc(C(=O)O)c2)o1` [Example 29, (R)-3-(5-(((2-((N-hydroxyformamido)methyl)heptanamido)methyl)carbamoyl)furan-2-yl)-5-methoxybenzoic acid], the IC50 ([1]; Homo sapiens) is reported as < 3.98 µM.
For `CCCCC[C@H](CN(O)C=O)C(=O)NCNC(=O)c1ccc(-c2ccc(C(=O)O)cc2)o1` [Example 92, (R)-4-(5-(((2-((N-hydroxyformamido)methyl)heptanamido)methyl)carbamoyl)furan-2-yl)benzoic acid], the IC50 [1, 3] was < 3.98 µM.
In the case of `CCCCC[C@@H](C(=O)NCNC(=O)c1ccc(-c2ccc(C(=O)O)cc2)o1)[C@@H](CC)N(O)C=O` [Example 71, 4-(5-((((R)-2-((R)-1-(N-hydroxyformamido)propyl)heptanamido)methyl)carbamoyl)furan-2-yl)benzoic acid], the IC50 ([1]; Homo sapiens) is reported as < 3.98 µM.
For `CCCCC[C@@H](C(=O)NCNC(=O)c1ccc(-c2cc(OCC(=O)O)cc(P(=O)(O)O)c2)o1)[C@@H](CC)N(O)C=O` [Example 145, 2-(3-(5-((((R)-2-((R)-1-(N-hydroxyformamido)propyl)heptanamido)methyl)carbamoyl)furan-2-yl)-5-phosphonophenoxy) acetic acid], the IC50 [1, 3] was < 3.98 µM.
For `CCCCC[C@@H](C(=O)NCNC(=O)c1ccc(-c2cccc(C(=O)N[C@@H](CC(=O)O)C(=O)O)c2)o1)[C@@H](CC)N(O)C=O` [Example 83, (S)-2-(3-(5-((((R)-2-((R)-1-(N-hydroxy-formamido)propyl)heptamido)methyl)carbamoyl)furan-2-yl)benzamido) succinic acid], the IC50 [1, 3] was < 3.98 µM.
With `CCCCC[C@@H](C(=O)NCNC(=O)c1ccc(-c2ccc(C(=O)N(CC(=O)O)CC(=O)O)cc2)o1)[C@@H](CC)N(O)C=O` [Example 136, 2,2′-((4-(5-((((R)-2-((R)-1-(N-hydroxyformamido)propyl)heptanamido)methyl)carbamoyl)furan-2-yl)benzoyl)azanediyl)diacetic acid] the IC50 [1, 3] was < 3.98 µM.
For `CCCCC[C@H](CN(O)C=O)C(=O)NCNC(=O)c1ccc(-c2cc(OC)cc(C(=O)NCCN)c2)o1` [Example 33, (R)-5-(3-((2-aminoethyl)carbamoyl)-5-methoxyphenyl)-N-((2-((N-hydroxyformamido)methyl)heptanamido)methyl) furan-2-carboxamide], the IC50 [1, 3] was < 3.98 µM.
With `CCCCC[C@H](CN(O)C=O)C(=O)NCNC(=O)c1ccc(-c2cccc(CC(=O)O)c2)o1` [Example 60, (R)-2-(3-(5-(((2-((N-hydroxyformamido)methyl)heptanamido)methyl)carbamoyl)furan-2-yl)phenyl)acetic acid] the IC50 [1, 3] was < 3.98 µM.
For `CCCCC[C@H](CN(O)C=O)C(=O)NCNC(=O)c1ccc(-c2cccc(P(C)(=O)O)c2)o1` [Example 94, (3-(5-((((R)-2-((N-hydroxyformamido)methyl)heptanamido)methyl)carbamoyl)furan-2-yl)phenyl)(methyl)phosphinic acid], the IC50 [1, 3] was < 3.98 µM.
